Measured values published in US20200163984A1, “USE OF ISOVALERYL SPIRAMYCIN I, II AND/OR III IN MANUFACTURING MEDICAMENT FOR TREATING AND/OR PREVENTING TUMOR, AND MEDICAMENT” (SHENYANG FUYANG PHARMACEUTICAL TECHNOLOGY CO., LTD., priority 2017, published 2020).

Tests used:
[1] = system: transplanted tumor of human thyroid cancer cell TPC-1; test: TPC-1 transplanted tumor in nude mice; settings: for Tumor Volume (mm3) (d30): d 30
[2] = system: transplanted tumor of human breast cancer cell MDA-MB-231; test: MDA-MB-231 transplanted tumor in nude mice
[3] = system: transplanted tumor of human large cell lung cancer H460 cells; test: H460 transplanted tumor in nude mice
[4] = Thymus index and spleen index of Lewis lung cancer tumor-bearing mice; settings: n = 6
[5] = system: transplanted tumor of human hepatoma cell HepG-2; test: HepG-2 transplanted tumor in nude mice; settings: for Tumor Volume (mm3) (d 1): d1
[6] = TPC-1, high dose (100 mg/kg in method) i.g. 30 days
[7] = TPC-1, low dose (25 mg/kg in method) i.g. 30 days
[8] = TPC-1, medium dose (50 mg/kg in method) i.g. 30 days
[9] = MDA-MB-231, 25 mg/kg (low dose) i.g. 30 days
[10] = MDA-MB-231, 50 mg/kg (medium dose) i.g. 30 days
[11] = MDA-MB-231, 100 mg/kg (high dose) i.g. 30 days
[12] = H460, 25 mg/kg (low dose) i.g. 30 days
[13] = H460, 50 mg/kg (medium dose) i.g. 30 days
[14] = H460, 100 mg/kg (high dose) i.g. 30 days
[15] = HepG-2, high dose (100 mg/kg in method) i.g. 30 days
[16] = HepG-2, low dose (25 mg/kg in method) i.g. 30 days
[17] = HepG-2, medium dose (50 mg/kg in method) i.g. 30 days

## CCC(=O)O[C@@H]1CC(=O)O[C@H](C)C/C=C/C=C/[C@H](O[C@H]2CC[C@H](N(C)C)[C@@H](C)O2)[C@H](C)C[C@H](CC=O)[C@H](O[C@@H]2O[C@H](C)[C@@H](O[C@H]3C[C@@](C)(O)[C@@H](OC(=O)CC(C)C)[C@H](C)O3)[C@H](N(C)C)[C@H]2O)[C@H]1OC [Isovaleryl spiramycin III, isovaleryl spiramycin III]
[1]; [6]
  Relative Tumor Proliferation Rate (T/C): 34.75%
  tumor growth inhibition rate: 62.94%
[1]; [7]
  Relative Tumor Proliferation Rate (T/C): 61.93%
  tumor growth inhibition rate: 39.06%
[1]; TPC-1, low, medium and high doses, P<0.05
  tumor volume and relative tumor volume compared with the model group: significantly lower
[1]; [8]
  Relative Tumor Proliferation Rate (T/C): 45.01%
  tumor growth inhibition rate: 60.25%
[1]; dose 25 mg/kg
  Inhibition Rate (%): 39.06%
  Relative Tumor Proliferation Rate (T/C): 61.93%
  Relative Tumor Volume (RTV): 10.19 ± 2.79
  Tumor Weight: 1.47 ± 0.44 g
  Tumor Volume (mm3) (d 1): 119.35 ± 3.84 mm3
  Tumor Volume (mm3) (d30): 1210.76 ± 295.50 mm3
[1]; dose 50 mg/kg
  Inhibition Rate (%): 60.25%
  Relative Tumor Proliferation Rate (T/C): 45.01%
  Relative Tumor Volume (RTV): 7.41 ± 2.51
  Tumor Weight: 0.96 ± 0.43 g
  Tumor Volume (mm3) (d 1): 116.75 ± 5.22 mm3
  Tumor Volume (mm3) (d30): 866.73 ± 306.25 mm3
[1]; dose 100 mg/kg
  Inhibition Rate (%): 62.94%
  Relative Tumor Proliferation Rate (T/C): 34.75%
  Relative Tumor Volume (RTV): 5.72 ± 3.04
  Tumor Weight: 0.90 ± 0.44 g
  Tumor Volume (mm3) (d 1): 115.43 ± 7.58 mm3
  Tumor Volume (mm3) (d30): 654.78 ± 338.68 mm3
[1]; mouse, in vivo
  mouse weight compared with the model group: no significant changes
[1]; mouse, in vivo, 25 mg/kg
  Body Weight (g) (d1): 21.13 ± 1.48 g
  Body Weight (g) (d30): 23.49 ± 1.02 g
[1]; mouse, in vivo, 50 mg/kg
  Body Weight (g) (d1): 21.43 ± 1.85 g
  Body Weight (g) (d30): 24.06 ± 1.71 g
[1]; mouse, in vivo, 100 mg/kg
  Body Weight (g) (d1): 20.76 ± 2.13 g
  Body Weight (g) (d30): 23.72 ± 1.60 g
[2]; [9]
  Inhibition Rate (tumor growth inhibition rate): 24.35%
  Relative Tumor Proliferation Rate (T/C): 68.36%
  Relative Tumor Volume (RTV): 10.68 ± 2.47
  Tumor Volume (d 1): 114.53 ± 6.52 mm3
  Tumor Volume (d 30): 1217.28 ± 267.06 mm3
  Tumor Weight: 1.76 ± 0.20 g
[2]; [10]
  Inhibition Rate (tumor growth inhibition rate): 52.01%
  Relative Tumor Proliferation Rate (T/C): 50.12%
  Relative Tumor Volume (RTV): 7.83 ± 2.97
  Tumor Volume (d 1): 112.00 ± 10.40 mm3
  Tumor Volume (d 30): 860.48 ± 286.44 mm3
  Tumor Weight: 1.11 ± 0.54 g
[2]; MDA-MB-231, 50 mg/kg (medium dose) i.g. 30 days, listed as isovaleryl spiramycin III
  Inhibition Rate (tumor growth inhibition rate): 21.01%
[2]; [11]
  Inhibition Rate (tumor growth inhibition rate): 62.93%
  Relative Tumor Proliferation Rate (T/C): 35.27%
  Relative Tumor Volume (RTV): 5.51 ± 2.72
  Tumor Volume (d 1): 115.76 ± 7.04 mm3
  Tumor Volume (d 30): 647.02 ± 338.62 mm3
  Tumor Weight: 0.86 ± 0.44 g
[2]; MDA-MB-231, low, medium and high doses, P<0.05
  tumor volume and relative tumor volume compared with the model group: significantly lower
[2]; mouse, in vivo
  mouse weight compared with the model group: no significant changes
[3]; [12]
  Inhibition Rate (tumor growth inhibition rate): 17.41%
  Relative Tumor Proliferation Rate (T/C): 63.03%
  Relative Tumor Volume (RTV): 6.62 ± 2.34
  Tumor Volume (d 1): 140.44 ± 14.04 mm3
  Tumor Volume (d 30): 914.05 ± 279.14 mm3
  Tumor Weight: 1.42 ± 0.26 g
[3]; [13]
  Inhibition Rate (tumor growth inhibition rate): 23.31%
  Relative Tumor Proliferation Rate (T/C): 42.54%
  Relative Tumor Volume (RTV): 4.47 ± 0.94
  Tumor Volume (d 1): 148.59 ± 14.47 mm3
  Tumor Volume (d 30): 666.74 ± 160.61 mm3
  Tumor Weight: 1.32 ± 0.25 g
[3]; [14]
  Inhibition Rate (tumor growth inhibition rate): 63.93%
  Relative Tumor Proliferation Rate (T/C): 35.95%
  Relative Tumor Volume (RTV): 3.78 ± 0.84
  Tumor Volume (d 1): 143.19 ± 17.40 mm3
  Tumor Volume (d 30): 531.56 ± 78.33 mm3
  Tumor Weight: 0.62 ± 0.26 g
[3]; H460, low, medium and high doses, P<0.05
  tumor volume and relative tumor volume compared with the model group: significantly lower
[3]; mouse, in vivo
  mouse weight compared with the model group: no significant changes
[4]; dose 13 mg/kg
  Spleen Index (%): 0.62 ± 0.25%
  Thymus Index (%): 0.12 ± 0.10%
[4]; dose 26 mg/kg
  Spleen Index (%): 0.68 ± 0.11%
  Thymus Index (%): 0.11 ± 0.07%
[4]; dose 52 mg/kg
  Spleen Index (%): 0.74 ± 0.23%
  Thymus Index (%): 0.13 ± 0.06%
[5]; [15]
  Relative Tumor Proliferation Rate (T/C): 32.71%
  tumor growth inhibition rate: 63.28%
[5]; [16]
  Relative Tumor Proliferation Rate (T/C): 64.69%
  tumor growth inhibition rate: 38.92%
[5]; HepG-2, low, medium and high doses, P<0.05
  tumor volume and relative tumor volume compared with the model group: significantly lower
[5]; [17]
  Relative Tumor Proliferation Rate (T/C): 43.18%
  tumor growth inhibition rate: 60.54%
[5]; HepG-2 nude mice, 25 mg/kg
  Inhibition Rate (%): 38.92%
  Relative Tumor Proliferation Rate (T/C): 64.69%
  Relative Tumor Volume (RTV): 10.83 ± 2.47
  Tumor Weight: 1.48 ± 0.42 g
  Tumor Volume (mm3) (d 1): 116.67 ± 8.32 mm3
  Tumor Volume (mm3) (d30): 1261.48 ± 283.95 mm3
[5]; HepG-2 nude mice, 50 mg/kg
  Inhibition Rate (%): 60.54%
  Relative Tumor Proliferation Rate (T/C): 43.18%
  Relative Tumor Volume (RTV): 7.23 ± 2.57
  Tumor Weight: 0.96 ± 0.44 g
  Tumor Volume (mm3) (d 1): 119.43 ± 10.86 mm3
  Tumor Volume (mm3) (d30): 852.87 ± 293.29 mm3
[5]; HepG-2 nude mice, 100 mg/kg
  Inhibition Rate (%): 63.28%
  Relative Tumor Proliferation Rate (T/C): 32.71%
  Relative Tumor Volume (RTV): 5.48 ± 3.19
  Tumor Weight: 0.89 ± 0.46 g
  Tumor Volume (mm3) (d 1): 118.26 ± 6.57 mm3
  Tumor Volume (mm3) (d30): 641.99 ± 364.25 mm3
[5]; mouse, in vivo
  mouse weight compared with the model group: no significant changes
[5]; mouse, in vivo, 25 mg/kg
  Body Weight (g) (d1): 21.07 ± 1.24 g
  Body Weight (g) (d30): 23.94 ± 1.67 g
[5]; mouse, in vivo, 50 mg/kg
  Body Weight (g) (d1): 21.25 ± 1.86 g
  Body Weight (g) (d30): 24.36 ± 1.53 g
[5]; mouse, in vivo, 100 mg/kg
  Body Weight (g) (d1): 20.47 ± 2.24 g
  Body Weight (g) (d30): 23.64 ± 1.44 g
